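Cells were grown in 96-well plates and exposed to each compound for 48 hours at five concentrations; endpoints were interpolated linearly between bracketing concentrations, or set to the highest concentration if not reached. Abbreviation: GI50, concentration required for 50% inhibition of growth.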 Calls of active or inactive are those of the source. Rule as the data show it: active = GI50 up to about 1.1 µM and inactive = higher.
Columns and labels:
Assay in all cases: NCI anticancer screen, dose series, 48 h
XF498 = test system: XF498
HOP-18 = test system: HOP-18
KM-20L2 = test system: KM-20L2
M19-MEL = test system: M19-MEL
DMS-273 = test system: DMS-273
DLD-1 = test system: DLD-1
DMS-114 = test system: DMS-114
SNB-78 = test system: SNB-78
RXF 631 = test system: RXF 631

COc1ccc(S(=O)(=O)NC(C)C(=O)O)cc1 (centres undefined)
GI50 (XF498): 21.9 µM (inactive)
GI50 (HOP-18): > 100 µM (inactive)
GI50 (KM-20L2): > 100 µM (inactive)
GI50 (M19-MEL): > 100 µM (inactive)
GI50 (DMS-273): > 100 µM (inactive)
GI50 (DLD-1): > 100 µM (inactive)

CCCN(CCC)CCc1cc(C(C)=O)n(S(=O)(=O)c2ccc(C)cc2)c1
GI50 (HOP-18): > 100 µM (inactive)
GI50 (DMS-114): > 100 µM (inactive)
GI50 (SNB-78): > 100 µM (inactive)
GI50 (M19-MEL): > 100 µM (inactive)
GI50 (DMS-273): > 100 µM (inactive)
GI50 (DLD-1): > 100 µM (inactive)

O=C1C(Cl)C(c2ccc([N+](=O)[O-])cc2)N1n1cnc2ccccc2c1=O (centres undefined)
GI50 (XF498): 64.9 µM (inactive)
GI50 (HOP-18): 40.6 µM (inactive)
GI50 (KM-20L2): > 100 µM (inactive)
GI50 (DMS-114): 20.2 µM (inactive)
GI50 (SNB-78): 24.1 µM (inactive)
GI50 (DMS-273): 34.5 µM (inactive)
GI50 (DLD-1): 53.1 µM (inactive)

CCOP(=O)(OCC)C1CC(C)OC1=O (centres undefined)
GI50 (RXF 631): > 100 µM (inactive)
GI50 (XF498): > 100 µM (inactive)
GI50 (KM-20L2): > 100 µM (inactive)
GI50 (DMS-114): > 100 µM (inactive)
GI50 (SNB-78): > 100 µM (inactive)
GI50 (M19-MEL): > 100 µM (inactive)
GI50 (DMS-273): > 100 µM (inactive)
GI50 (DLD-1): > 100 µM (inactive)

COc1c(C(C)C)cc2c3c1OC(=O)[C@@]31CCCC(C)(C)C1CC2 (some centres undefined)
GI50 (KM-20L2): 30.4 µM (inactive)
GI50 (SNB-78): 23.3 µM (inactive)
GI50 (M19-MEL): 23.6 µM (inactive)
GI50 (DMS-273): 23.4 µM (inactive)
GI50 (DLD-1): 69.8 µM (inactive)

CCCCCCC(=O)OC[n+]1ccc2c(C)c3[nH]c4ccc(OC)cc4c3c(C)c2c1
GI50 (RXF 631): 0.455 µM (active)
GI50 (KM-20L2): 2.42 µM (inactive)
GI50 (DMS-114): 0.522 µM (active)
GI50 (SNB-78): 1.06 µM (active)
GI50 (M19-MEL): 0.953 µM (active)
GI50 (DMS-273): 0.029 µM (active)
GI50 (DLD-1): 0.092 µM (active)

Nc1ccc(C(=O)NN2C(=O)C(Cl)C2c2cccc([N+](=O)[O-])c2)cc1 (centres undefined)
GI50 (XF498): 13.2 µM (inactive)
GI50 (KM-20L2): 25.3 µM (inactive)
GI50 (DMS-114): 18.7 µM (inactive)
GI50 (SNB-78): 63.2 µM (inactive)
GI50 (M19-MEL): 19.8 µM (inactive)
GI50 (DMS-273): 16 µM (inactive)
GI50 (DLD-1): 17.9 µM (inactive)

O=c1c2cccc3cccc(c4n1CCN=4)c32
GI50 (XF498): > 100 µM (inactive)
GI50 (HOP-18): > 100 µM (inactive)
GI50 (KM-20L2): > 100 µM (inactive)
GI50 (DMS-114): > 100 µM (inactive)
GI50 (SNB-78): > 100 µM (inactive)
GI50 (M19-MEL): > 100 µM (inactive)
GI50 (DMS-273): 97.7 µM (inactive)
GI50 (DLD-1): 52.5 µM (inactive)

CCCCCCCCCCCCN(O)C(=O)c1ccccc1
GI50 (XF498): 21.6 µM (inactive)
GI50 (HOP-18): 62.1 µM (inactive)
GI50 (KM-20L2): 36.2 µM (inactive)
GI50 (M19-MEL): 37.8 µM (inactive)
GI50 (DLD-1): 26.4 µM (inactive)

CC1=NN(c2ccccc2)C(=O)C1=C1SCCCS1
GI50 (XF498): 16.6 µM (inactive)
GI50 (HOP-18): 20.8 µM (inactive)
GI50 (KM-20L2): 31.4 µM (inactive)
GI50 (DMS-114): 20.8 µM (inactive)
GI50 (SNB-78): 66.2 µM (inactive)
GI50 (M19-MEL): 32.1 µM (inactive)
GI50 (DMS-273): 32.7 µM (inactive)
GI50 (DLD-1): 21.5 µM (inactive)

N#C/C(=C/Sc1ccccc1)C(=O)O
GI50 (XF498): 41.8 µM (inactive)
GI50 (HOP-18): > 100 µM (inactive)
GI50 (KM-20L2): 30.1 µM (inactive)
GI50 (DMS-114): 15.1 µM (inactive)
GI50 (SNB-78): 18 µM (inactive)
GI50 (M19-MEL): 23.3 µM (inactive)
GI50 (DMS-273): 22.2 µM (inactive)
GI50 (DLD-1): 36 µM (inactive)

CCC12CCCC(=O)N1C(CO)C(c1ccccc1)O2 (centres undefined)
GI50 (XF498): > 100 µM (inactive)
GI50 (HOP-18): > 100 µM (inactive)
GI50 (KM-20L2): > 100 µM (inactive)
GI50 (DMS-114): 38 µM (inactive)
GI50 (SNB-78): > 100 µM (inactive)
GI50 (M19-MEL): > 100 µM (inactive)
GI50 (DMS-273): > 100 µM (inactive)
GI50 (DLD-1): > 100 µM (inactive)

CC(=O)Nc1ccc(C2CC(c3ccc([N+](=O)[O-])cc3)=Nc3ccccc3[S+]2[O-])cc1 (centres undefined)
GI50 (RXF 631): > 10 µM (inactive)
GI50 (XF498): 24.2 µM (inactive)
GI50 (HOP-18): 27.2 µM (inactive)
GI50 (KM-20L2): 21.6 µM (inactive)
GI50 (DMS-114): 21.2 µM (inactive)
GI50 (M19-MEL): 15.2 µM (inactive)
GI50 (DMS-273): 13.6 µM (inactive)
GI50 (DLD-1): 15.9 µM (inactive)

CCOc1ccc2c(c1)[n+]([O-])c(-c1ccccc1)c(N)[n+]2[O-]
GI50 (XF498): > 100 µM (inactive)
GI50 (HOP-18): 53.6 µM (inactive)
GI50 (KM-20L2): 59 µM (inactive)
GI50 (DMS-114): 34.9 µM (inactive)
GI50 (M19-MEL): 62.4 µM (inactive)
GI50 (DMS-273): 77.1 µM (inactive)
GI50 (DLD-1): > 100 µM (inactive)

O=C(N/N=C/c1cc(-c2ccccc2Cl)c(-c2ccccc2Cl)o1)c1ccncc1
GI50 (RXF 631): > 100 µM (inactive)
GI50 (XF498): > 100 µM (inactive)
GI50 (KM-20L2): > 100 µM (inactive)
GI50 (DMS-114): 87.9 µM (inactive)
GI50 (M19-MEL): > 100 µM (inactive)
GI50 (DLD-1): > 100 µM (inactive)

Clc1ccc(C2=NN(c3ccccc3)C3c4cc(Br)ccc4OCC23)cc1 (centres undefined)
GI50 (RXF 631): > 100 µM (inactive)
GI50 (XF498): 66.2 µM (inactive)
GI50 (HOP-18): > 100 µM (inactive)
GI50 (KM-20L2): > 100 µM (inactive)
GI50 (DMS-114): 86.1 µM (inactive)
GI50 (SNB-78): > 100 µM (inactive)
GI50 (M19-MEL): > 100 µM (inactive)
GI50 (DMS-273): > 100 µM (inactive)
GI50 (DLD-1): > 100 µM (inactive)

O=S1(=O)NN=C(NCc2ccc(Cl)c(Cl)c2)c2ccccc21
GI50 (HOP-18): > 100 µM (inactive)
GI50 (KM-20L2): > 100 µM (inactive)
GI50 (DMS-114): > 100 µM (inactive)
GI50 (SNB-78): 97.5 µM (inactive)
GI50 (M19-MEL): > 100 µM (inactive)
GI50 (DMS-273): > 100 µM (inactive)
GI50 (DLD-1): 56.9 µM (inactive)

N#CC(N)(C(=O)CCC(=O)Nc1cccc(Cl)c1)c1ccc(Cl)cc1 (centres undefined)
GI50 (XF498): > 100 µM (inactive)
GI50 (HOP-18): > 100 µM (inactive)
GI50 (KM-20L2): > 100 µM (inactive)
GI50 (DMS-114): > 100 µM (inactive)
GI50 (SNB-78): > 100 µM (inactive)
GI50 (M19-MEL): > 100 µM (inactive)
GI50 (DMS-273): > 100 µM (inactive)
GI50 (DLD-1): > 100 µM (inactive)

COC(=O)C(C(=O)C(=O)Nc1cccc(OC)c1)c1cnc2ccccc2n1 (centres undefined)
GI50 (RXF 631): > 100 µM (inactive)
GI50 (XF498): > 100 µM (inactive)
GI50 (HOP-18): > 100 µM (inactive)
GI50 (KM-20L2): > 100 µM (inactive)
GI50 (DMS-114): > 100 µM (inactive)
GI50 (SNB-78): > 100 µM (inactive)
GI50 (DMS-273): > 100 µM (inactive)
GI50 (DLD-1): > 100 µM (inactive)

COC(=O)/C(Cl)=C1/CC1COCc1ccccc1 (centres undefined)
GI50 (XF498): 26.4 µM (inactive)
GI50 (KM-20L2): 41.4 µM (inactive)
GI50 (DMS-114): 28.8 µM (inactive)
GI50 (SNB-78): 45.9 µM (inactive)
GI50 (M19-MEL): 33.3 µM (inactive)
GI50 (DMS-273): 20.7 µM (inactive)
GI50 (DLD-1): 20.4 µM (inactive)

COc1cccc2c1C(=O)c1c(O)c3c(c(O)c1C2=O)C[C@@](O)(C(=O)CO)C[C@@H]3OC1CC(N2CCOCC2C#N)C(O)C(C)O1 (some centres undefined)
GI50 (RXF 631): 8.24e-05 µM (active)
GI50 (HOP-18): 0.0025 µM (active)
GI50 (KM-20L2): 0.0025 µM (active)
GI50 (SNB-78): 0.0025 µM (active)
GI50 (DMS-273): 1.93e-05 µM (active)
GI50 (DLD-1): 2.26e-05 µM (active)
